In patent US20120115907A1, “NOVEL COMPOUNDS AS INHIBITORS OF RENIN” (CADILA HEALTHCARE LIMITED, priority 2009, published 2012):

Assays:
[1] = target: T1, human recombinant renin (Homo sapiens, UniProt P00797); assay: Inhibition of human recombinant renin (modified Cayman renin inhibitor screening assay, fluorescence); assay type: biochemical; conditions: for inhibition at 0.01 µM: read-out: Renin inhibition (percent inhibition of renin activity) at 0.01 μM; for inhibition at 0.1 µM: read-out: Renin inhibition (percent inhibition of renin activity) at 0.1 μM
T1 construct: purchased Cayman 10006270
T1 sequence (P00797 67-406): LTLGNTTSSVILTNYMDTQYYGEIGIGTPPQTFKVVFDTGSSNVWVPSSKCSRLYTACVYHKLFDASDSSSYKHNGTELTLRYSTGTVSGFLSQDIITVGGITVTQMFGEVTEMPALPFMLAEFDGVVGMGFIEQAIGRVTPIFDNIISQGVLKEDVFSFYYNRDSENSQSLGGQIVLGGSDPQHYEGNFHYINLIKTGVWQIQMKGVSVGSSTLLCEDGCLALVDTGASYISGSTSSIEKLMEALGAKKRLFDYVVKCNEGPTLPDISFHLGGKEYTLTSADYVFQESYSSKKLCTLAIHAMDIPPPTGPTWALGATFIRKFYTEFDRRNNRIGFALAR
Protocol: In-vitro protocol for the Inhibition of human recombinant renin by the compound of invention • Procedure: The enzymatic in vitro assay was performed in 96 well polypropylene plate (Nunc), using a modified Renin inhibitor screening assay protocol (Cayman, cat no: 10006270). The reaction system comprised assay buffer containing 50 mM Tris-HCL, pH=8.0 & 100 mM sodium chloride, human recombinant rennin (1:20 diluted with fixed activity), synthetic renin substrates (Cayman, cat no: 10006906) (14.4 μM) and different concentrations of renin inhibitors in DMSO in a total reaction system of 100 μl. The entire reaction mixture were incubated at 37° C. for 30 mins and the fluorescence was read at excitation wavelengths of 320-360 nm and emission wavelengths of 490-520 nm. Test compounds efficacy was determined by the percent inhibition of renin activity using Aliskiren (Tekturna) as a reference standard.
Following table represents measured IC50 values of the selected compounds for its inhibition of human recombinant renin.

[2] = test system: Guinea Pigs; assay: Anaesthetized Guinea Pig Model (furosemide-treated, blood pressure via carotid artery); assay type: in vivo; design: unit not given beside the values; conditions: intravenous, change from pretreatment
Protocol: Anaesthetized Guinea Pig Model
Experimental Procedure: Guinea Pigs were Treated with Furosemide in Drinking Water
(5 mg/kg/day) for four days and intramuscular injection (10 mg/kg) at 18 and 3 hr before experiment. There after they were anaesthetized by using intramuscular injection of xylazine and ketamine (7:70 mg/kg mixture). The left or right jugular vein was exposed and cannulated for intravenous administration of the NCEs. The to left or right carotid artery was exposed and cannulated for recording blood pressure using Biopac system. 0 (vehicle control), 3 and 10 mg of NCEs were administered and change in blood pressure from pretreatment was measured.

[3] = 0.01 μM compound, 37° C., 30 mins, human recombinant renin
[4] = 0.1 μM compound, 37° C., 30 mins, human recombinant renin

`O=C(NC1CCNCC1C(=O)N(Cc1cccc(Cl)c1Cl)C1CC1)c1ccc(OCCOc2c(Cl)cccc2Cl)cc1` (stereo not shown) [Example 1, N-cyclopropyl-N-(2,3-dichlorobenzyl)-4-(4-(2-(2,6-dichlorophenoxy)ethoxy)benzamido) piperidine-3-carboxamide] gave an IC50 [1] of 0.016 µM, an inhibition at 0.01 µM [1, 3] of 88% and an inhibition at 0.1 µM [1, 4] of 100%. For the same compound, the “Reduction in M.A.B.P” value ([2]; 3 mg) was 18, the “Reduction in M.A.B.P” value ([2]; 10 mg) was 30 and the melting point was 66 to 68 °C.

In the case of `Cc1cc(Cl)c(OCCOc2ccc(C(=O)N[C@H]3CCNCC3C(=O)N(Cc3cccc(C)c3C)C3CC3)cc2)c(Cl)c1` (stereo partly drawn) [Example 26, (4S)—N-Cyclopropyl-4-(4-(2-(2,6-dichloro-4-methylphenoxy)ethoxy)benzamido)-N-(2,3-dimethylbenzyl)piperidine-3-carboxamide], the IC50 [1] is reported as 0.021 µM, the “Renin inhibition (percent inhibition of renin activity) at 0.01 μM” value [1, 3] is reported as 67% and the “Renin inhibition (percent inhibition of renin activity) at 0.1 μM” value [1, 4] is reported as 97%. For the same compound, the “Reduction in M.A.B.P” value ([2]; 3 mg) was 14 and the “Reduction in M.A.B.P” value ([2]; 10 mg) was 28.

Compound `COc1ccccc1CN(C(=O)C1CNCC[C@@H]1NC(=O)c1ccc(OCCOc2c(Cl)cc(C)cc2Cl)cc1)C1CC1.Cl` (stereo partly drawn) [Example 31, (4S)—N-Cyclopropyl-4-(4-(2-(2,6-dichloro-4-methylphenoxy)ethoxy)benzamido)-N-(2-methoxybenzyl)piperidine-3-carboxamide hydrochloride] has an IC50 [1] of 0.037 µM, an inhibition at 0.01 µM [1, 3] of 22% and an inhibition at 0.1 µM [1, 4] of 91%. For the same compound, the “Reduction in M.A.B.P” value ([2]; 3 mg) was 8 and the “Reduction in M.A.B.P” value ([2]; 10 mg) was 28.
